{"source": "patent US6022873A", "about": "“Metalloproteinase inhibitors” (British Biotech Pharmaceuticals Limited, priority 1996, dated 2000)", "biological_target": "T1, human fibroblast collagenase (Homo sapiens, UniProt P03956)", "T1 sequence (P03956 100-469)": "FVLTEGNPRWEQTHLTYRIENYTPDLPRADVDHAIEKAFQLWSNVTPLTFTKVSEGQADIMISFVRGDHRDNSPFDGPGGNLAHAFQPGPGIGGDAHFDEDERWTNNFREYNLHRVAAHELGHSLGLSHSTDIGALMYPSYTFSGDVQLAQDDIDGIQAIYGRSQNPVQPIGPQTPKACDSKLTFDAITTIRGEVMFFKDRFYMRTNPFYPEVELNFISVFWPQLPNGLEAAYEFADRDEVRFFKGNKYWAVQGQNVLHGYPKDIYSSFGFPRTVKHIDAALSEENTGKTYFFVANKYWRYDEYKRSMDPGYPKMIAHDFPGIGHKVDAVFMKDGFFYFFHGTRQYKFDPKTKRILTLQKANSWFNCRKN", "assay": "Human fibroblast collagenase inhibition assay (14C-acetylated collagen hydrolysis, Cawston and Barrett)", "format": "biochemical", "settings": "37° C., 16 hours, acetylated 14C collagen, 25 mM Hepes pH 7.5; read-out: inhibitor concentration effecting 50% inhibition of the collagenase activity (IC50)", "description": "The potency of compounds of the present invention as inhibitors of human fibroblast collagenase may be determined by the procedure of Cawston and Barrett, (Anal. Biochem., 99, 340-345, 1979), hereby incorporated by reference, whereby a 1 mM solution of the compound being tested, or a dilution thereof, was incubated at 37° C. for 16 hours with collagen and human fibroblast collagenase (buffered with 25 mM Hepes, pH 7.5 containing 5 mM CaCl2, 0.05% Brij 35 and 0.02% NaN3). The collagen was acetylated ^14 C collagen prepared by the method of Cawston and Murphy, (Methods in Enzymology, 80, 711, 1981), hereby incorporated by reference. The samples were centrifuged to sediment undigested collagen, and an aliquot of the radioactive supernatant removed for assay on a scintillation counter as a measure of hydrolysis.", "data": [{"compound": "COc1ccc(S(=O)(=O)NCC[C@H](C(=O)NO)[C@@H](CC(C)C)C(=O)N2CCCCC2)cc1", "note": "[Example 2, 2S-[(4-Methoxybenzenesulfonyl-amino)-ethyl]-5-methyl-3R-(piperidine-1-carbonyl)-hexanoic acid hydroxyamide]", "values": [{"measurement": "IC50", "result": "~50", "unit": "nM"}]}]}
